Test results: patent publication US9642369B2 (dated 2017)

Structure (SMILES) | melting point [°C]
CCOP(=O)(CCC[N+](C)(C)CCCNS(=O)(=O)c1cccc2c(N(C)C)cccc12)OCC.[Br-] | 34 to 36
CN(C)CCCNS(=O)(=O)c1cccc2c(N(C)C)cccc12 (hydrate or solvate) | 122 to 124
